The results in this text go back to US20080226596A1, “Therapeutic compositions and methods useful in treating hepatitis” (priority 2006, published 2008).

Entries after “also recorded” stand apart in the source; their conditions may differ.

One assay addresses T1, SHP-1 (Mus musculus, UniProt P29351).
T1 construct: made in house
Description: Reversibility of SHP-1 inhibition (washing of bead-bound GST/SHP-1). Conditions: pre-incubated 4° C. 30 minutes, washed 3 times. It counts as biochemical. From the text:
The beads were then either subjected to in vitro PTPase assays or washed 3 times in Tris buffer then subjected to in vitro PTPase assays.

The subject of another assay is human peripheral blood. Put plainly: ELISPOT of cytokine-positive cells in human peripheral blood treated in vitro. It counts as cell-based. The conditions noted are these: comparable conditions.
The next assay has as its system DR cells. Put plainly: DR lymphoma cell growth, MTT assay. In kind it is cell-based, human. The conditions noted are these: 100 μg/ml, day 6. As for the experimental part:
(§1) For cell proliferation assays, cells were grown in 10% FCS culture medium containing various amounts of IFNs and/or sodium stibogluconate in 96 well plates and cultured at 37° C. for 3 or 6 days as indicated. The numbers of viable cells in proliferation assays were determined by MTT assays as described in Phatak et al., J. Immunol. 167, 3391 (2001).
(Tetrazolium dyes change colour on reduction, which living cells bring about.)

The subject of another assay is U266 cells. Description: U266 multiple myeloma cell growth, MTT assay. It counts as cell-based, human. Conditions: day six cultures. As for the experimental part: as §1
A further assay relates to WiT49-N1 cells. Put plainly: WiT49-N1 Wilms tumor cell growth, MTT assay. It counts as cell-based, human. Conditions: single agent, day 6; killing at 100 μg/ml. As for the experimental part:
as §1

Another assay concerns Renca cells. Put plainly: Renca cell growth in culture, MTT assay. It counts as cell-based, murine. The conditions noted are these: SSG 6.25-200 μg/ml, 6 days; listed as SSG. From the text: Renca (Murphy, G. P., and W. J. Hrushesky. 1973. A murine renal cell carcinoma. J Natl Cancer Inst 50:1013), Jurkat (Gillis, S., and J. Watson. 1980. Biochemical and biological characterization of lymphocyte regulatory molecules. V. Identification of an interleukin 2-producing human leukemia T cell line. J Exp Med 152:1709) and WM9 (Forsberg, K., I. Valyi-Nagy, C. H. Heldin, M. Herlyn, and B. Westermark. 1993. Platelet-derived growth factor (PDGF) in oncogenesis: development of a vascular connective tissue stroma in xenotransplanted human melanoma producing PDGF-BB. Proc Natl Acad Sci USA 90:393) cell lines were obtained from a colleague at the Cleveland Clinic Foundation (CCF) and cultured in RPMI 1640 medium supplemented with 10% fetal calf serum (FCS). […] SSG has been described previously (Yi, T., M. K. Pathak, D. J. Lindner, M. E. Ketterer, C. Farver, and E. C. Borden. 2002. Anticancer activity of sodium stibogluconate in synergy with IFNs. J Immunol 169:5978). For cell growth inhibition assays, cells were cultured in absence or presence of various amounts of SSG for 6 days with viable cells quantified by MTT assays as described elsewhere (Pathak, M. K., and T. Yi. 2001. Sodium stibogluconate is a potent inhibitor of protein tyrosine phosphatases and augments cytokine responses in hemopoietic cell lines. J Immunol 167:3391).

Another assay deals with T2, PRL-3 (Homo sapiens, UniProt O75365).
T2 construct: GST (N); made in house; host or cells: DHSa (DH5a) bacteria
T2 sequence (O75365 whole entry): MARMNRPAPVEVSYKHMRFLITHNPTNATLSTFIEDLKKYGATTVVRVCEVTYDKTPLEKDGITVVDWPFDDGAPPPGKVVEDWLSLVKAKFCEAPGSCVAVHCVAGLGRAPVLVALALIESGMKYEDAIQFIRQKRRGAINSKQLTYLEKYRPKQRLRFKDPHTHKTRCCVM
Put plainly: In vitro PTPase assay, recombinant PRL-3, DiFMUP substrate. In kind it is biochemical. The conditions noted are these: comparable conditions. As for the experimental part:
In vitro PTPase assays were used to determine the effects of compounds on recombinant PTPases, following established procedures using a synthetic phosphotyrosine peptide or DiFMUP as the substrate (Pathak et al., J. Imumol. 167, 3391 (2001)). Briefly, individual PTPases (0.1 µg/reaction) in 50 μL of PTPase buffer (50 mM Tris, pH 7.4) were incubated at 22° C. for 10 minutes or as indicated in the absence or presence of inhibitory compounds. Substrates (0.2 mM phosphotyrosine peptide) were then added and allowed to react at 22° C. for 18 hrs. PTPase activity of individual reactions was measured by adding 100 µL of malachite green solution (UBI) and then quantifying the amounts of free phosphate cleaved by the PTPase from the peptide substrate by spectrometry (OD660 nm). PTPase assays using DiFMUP as a substrate were conducted following a previously described procedure (Matter, et al., Biochem. Biophys. Res. Comm. 283, 1061 (2001)). Relative PTPase activities were calculated based on the formula: (PTPase activity in the presence of an inhibitory compound/PTPase activity in the absence of the compound)× 100%. To assess the reversibility of PTPase inhibition, GST fusion proteins of the PTPases bound on glutathione beads (Pharmacia) were pre-incubated with cold Tris buffer (50 mM Tris, pH 7.0) or Tris buffer containing the inhibitor at 4° C. for 30 minutes. The beads were then washed three times in cold Tris buffer or not washed prior to subjecting to in vitro PTPase assays.

In the next assay the test system is DU145R cells. Description: DU145R cell growth, MTT assay. Conditions: day 6, compared with parental DU145. In kind it is cell-based, human. As for the experimental part: DU145 cells were cultured in the presence of sodium stibogluconate (100 µg/ml) in 48 well plates for 3 weeks. Cells from a well containing a single colony were transferred to flasks, cultured in sodium stibogluconate-free medium for 3 weeks and used as DU145R cells for further characterization. Growth of DU145R cells in the absence or presence of sodium stibogluconate in day 6 culture was determined by MTT assays. cDNAs of the coding region of PRLs were derived by RT-PCR from DU145 and DU145R cells and sequenced using primers described below.

T1 sequence (P29351 whole entry): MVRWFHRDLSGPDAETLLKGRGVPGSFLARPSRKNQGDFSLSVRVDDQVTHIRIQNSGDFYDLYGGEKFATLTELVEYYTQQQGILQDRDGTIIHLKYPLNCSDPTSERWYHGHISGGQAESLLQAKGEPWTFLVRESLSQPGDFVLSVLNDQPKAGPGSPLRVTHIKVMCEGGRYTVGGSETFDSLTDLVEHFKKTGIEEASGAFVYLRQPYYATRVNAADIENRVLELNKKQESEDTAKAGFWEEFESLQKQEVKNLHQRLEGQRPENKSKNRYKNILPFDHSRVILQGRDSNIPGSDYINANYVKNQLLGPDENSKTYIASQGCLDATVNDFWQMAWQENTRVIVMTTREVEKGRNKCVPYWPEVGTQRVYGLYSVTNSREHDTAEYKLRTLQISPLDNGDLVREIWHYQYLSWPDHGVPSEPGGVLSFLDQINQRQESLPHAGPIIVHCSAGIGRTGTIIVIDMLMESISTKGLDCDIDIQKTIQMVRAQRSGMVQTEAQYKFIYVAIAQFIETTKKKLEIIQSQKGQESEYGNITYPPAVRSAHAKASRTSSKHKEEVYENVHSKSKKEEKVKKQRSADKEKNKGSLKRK

Turning to `O.O.O.O.O.O.O.O.O.O=C([O-])[C@@H]1[O][Sb]2([O-])([O][Sb]34([OH])[O][C@H]([C@H](O)CO)[C@H]([O]3)[C@H](C(=O)[O-])[O]4)[O][C@H]([C@H](O)CO)[C@@H]1[O]2.[Na+].[Na+].[Na+]` [sodium stibogluconate], on SHP-1, the “inhibition of GST/SHP-1 after washing” value is “not affected by washing”. Besides, the “induction of IL-5+ cells” value in the assay on human peripheral blood was “not induced”. Moreover, the “killing of DR cells” value in the assay with DR cells is given as “complete or near complete killing”. In addition, the “growth inhibition of U266 cells” value in the assay with U266 cells is given as “substantial growth inhibition activity”. Also, the “sensitivity/killing of WiT49-N1 cells” value with WiT49-N1 cells was “sensitive; also recorded: complete or near complete killing”. For the same compound, the “Renca cell growth in culture” value in the assay on Renca cells was “failed to inhibit Renca cell proliferation in culture”. In addition, the “inhibition of PRL-3 with DiFMUP substrate” value at PRL-3 is reported as “also detected”. Moreover, the “growth of DU145R cells with sodium stibogluconate” value with DU145R cells is listed as “growth resistance to sodium stibogluconate”.
